Values after ≈ are worked out from the molar mass of the structure shown. Read-outs that look alike come from different tables or passages of the source.
Legend:
[1] = tested on: Pseudomona aeruginosa ATCC 27853; experiment: CIM antibacterial activity screening (broth microdilution); format: cell-based; settings: Pseudomonas aeruginosa
Method: (§1) These compounds were tested for their in vitro activity (Screening Antibacterial Activity CIM (μg/mL)) and the results are shown in Table II.
(§2) Bacteria used: A panel of prototype strains was used to screen for antibacterial activity in the compounds: • Methicillin-resistant Staphylococcus aureus ATCC© 43300. • Methicillin-sensitive Staphylococcus aureus ATCC© 29213. • Enterococcus faecalis ATCC© 29212. • Escherichia coli ATCC© 25922. • Pseudomonas aeruginosa ATCC© 27853.
(§3) The strains were planted from the ceparium (where they were preserved in 50% v/v glycerol and Brain Heart Infusion culture broth, at −20° C.) in Mueller-Hinton agar (Oxoid, England).
(§4) The concentrations to be tested ranged from 32 to 0.0625 μg/mL. The wells in columns 11 and 12 were used for positive growth control and sterility control respectively.
(§5) Once the plate was prepared, 100 uL of the bacterial suspension to be tested were added, previously adjusted to 0.5 Mc Farland, in each of the wells, excluding the wells in column 12. Finally, the plates were covered and incubated at 36° C. for 18 to 24 hours. Then, the plates were observed using contrast light to determine the concentration at which bacterial growth is inhibited (indicated by the disappearance of turbidity).
(§6) All trials were conducted three times, and results were considered valid if the internal controls of each plate (growth and sterility controls) were adequate. MIC antibiotic control (ciprofloxacin, gentamicin and vancomycin) was assessed and contrasted with the permitted quality control ranges given by CLSI. If the MIC detected in the trial was within the permitted ranges, the trial was accepted as valid.

[2] = tested on: Methicillin resistant Staphylococcus aureus ATCC 43300; experiment: as above; format: cell-based
Method: as §1, §2, §3, §4, §5, §6

[3] = tested on: Eschericha coli ATCC 25922; experiment: as above; format: cell-based; settings: Escherichia coli
Method: as §1, §2, §3, §4, §5, §6

[4] = tested on: Enterococcus faecalis ATCC 29212; experiment: as above; format: cell-based
Method: as §1, §2, §3, §4, §5, §6

[5] = tested on: Methicillin sensitive Staphylococcus aureus ATCC 29213; experiment: as above; format: cell-based
Method: as §1, §2, §3, §4, §5, §6

[6] = ATCC27853, Pseudomona aeruginosa ATCC 27853, read-out: CIM
[7] = ATCC43300, Methicillin resistant Staphylococcus aureus ATCC 43300, read-out: CIM
[8] = ATCC25922, Eschericha coli ATCC 25922, read-out: CIM
[9] = ATCC29212, Enterococcus faecalis ATCC 29212, read-out: CIM
[10] = ATCC29213, Methicillin sensitive Staphylococcus aureus ATCC 29213, read-out: CIM
[11] = Staphylococcus aureus, ATCC43300, read-out: CIM
[12] = Enterococcus faecalis, ATCC29212, read-out: CIM
[13] = Staphylococcus aureus, ATCC29213, read-out: CIM

SMILES	MIC [1, 6] [µg/mL]	MIC [2, 7] [µg/mL]	MIC [3, 8] [µg/mL]	MIC [4, 9] [µg/mL]	MIC [5, 10] [µg/mL]	MIC ([1]; ATCC27853, read-out: CIM) [µg/mL]	MIC [2, 11] [µg/mL]	MIC ([3]; ATCC25922, read-out: CIM) [µg/mL]	MIC [4, 12] [µg/mL]	MIC [5, 13] [µg/mL]	melting point [°C]
CCc1nc2c(c3c1C(=O)C(Sc1ccccc1F)=CC3=O)c(=O)n(C)c(=O)n2C [Molecule 5, 6-ethyl-8-((2-fluorophenyl)thio)-2,4-dimethyl pyrimido[4,5-c]isoquinoline-1,3,7,10(2H, 4H)-tetraone]	≥ 32	≥ 32	≥ 32	≥ 32	≥ 32						
CCc1nc2c(c3c1C(=O)C(Sc1ccccc1)=CC3=O)c(=O)n(C)c(=O)n2C [Molecule 2, 6-ethyl-2,4-dimethyl-8-(phenythio)pyrimido[4,5-c]isoquinoline-1,3,7,10(2H,4H)-tetraone]						≥ 32	8 (≈ 19.6 µM)	≥ 32	8 (≈ 19.6 µM)	8 (≈ 19.6 µM)	179.4 to 180
CCc1nc2c(c3c1C(=O)C(Sc1ccccc1OC)=CC3=O)c(=O)n(C)c(=O)n2C [Molecule 4, 6-ethyl-8-(2-methoxyphenylthio)-2,4-dimethyl pyrimido[4,5-c]isoquinoline-1,3,7,10(2H,4H)-tetraone]	≥ 32	2 (≈ 4.57 µM)	≥ 32	4 (≈ 9.14 µM)	4 (≈ 9.14 µM)						
CCc1nc2c(c3c1C(=O)C(Sc1cccc(F)c1)=CC3=O)c(=O)n(C)c(=O)n2C [Molecule 10, 6-ethyl-8-(3-fluorothiophenyl)-2,4-dimethylpyrimido[4,5-c]isoquinoline-1,3,7,10(2H,4H)-tetraone]	≥ 32	4 (≈ 9.4 µM)	≥ 32	8 (≈ 18.8 µM)	4 (≈ 9.4 µM)						170 to 171
CCc1nc2c(c3c1C(=O)C(Sc1ccccc1Cl)=CC3=O)c(=O)n(C)c(=O)n2C [Molecule 6, 8-((2-chlorophenyl)thio)-6-ethyl-2,4-dimethyl pyrimido[4,5-c]isoquinoline-1,3,7,10(2H,4H)-tetraone]						≥ 32	≥ 32	≥ 32	≥ 32	≥ 32	
CCc1nc2c(c3c1C(=O)C(Sc1ccccc1C)=CC3=O)c(=O)n(C)c(=O)n2C [Molecule 3, 6-ethyl-2,4-dimethyl-8-(o-tolylthio)pyrimido[4,5-c]isoquinoline-1,3,7,10(2H,4H)-tetraone]	≥ 32	32 (≈ 75.9 µM)	≥ 32	≥ 32	32 (≈ 75.9 µM)						206 to 210.9
CCc1nc2c(c3c1C(=O)C(Sc1ccc(C)cc1)=CC3=O)c(=O)n(C)c(=O)n2C [Molecule 13, 6-ethyl-2,4-dimethyl-8-(p-tolylthio)pyrimido[4,5-c]isoquinoline-1,3,7,10(2H,4H)-tetraone]	≥ 32	4 (≈ 9.49 µM)	≥ 32	16 (≈ 38 µM)	4 (≈ 9.49 µM)						191 to 192.3
CCc1nc2c(c3c1C(=O)C(Sc1ccccc1Br)=CC3=O)c(=O)n(C)c(=O)n2C [Molecule 7, 8-((2-bromophenyl)thio)-6-ethyl-2,4-dimethylpyrimido[4,5-c]isoquinoline-1,3,7,10(2H,4H)-tetraone]	≥ 32	1 (≈ 2.06 µM)	≥ 32	2 (≈ 4.11 µM)	4 (≈ 8.22 µM)						
CCc1nc2c(c3c1C(=O)C(Sc1ccc(Br)cc1)=CC3=O)c(=O)n(C)c(=O)n2C [Molecule 17, 8-(4-bromothiophenyl)-6-ethyl-2,4-dimethylpyrimido[4,5-c]isoquinoline-1,3,7,10(2H,4H)-tetraone]	≥ 32	4 (≈ 8.22 µM)	≥ 32	8 (≈ 16.4 µM)	8 (≈ 16.4 µM)						197.9 to 198.7
CCc1nc2c(c3c1C(=O)C(Sc1cccc(Br)c1)=CC3=O)c(=O)n(C)c(=O)n2C [Molecule 12, 8-(3-bromothiophenyl)-6-ethyl-2,4-dimethylpyrimido[4,5-c]isoquinoline-1,3,7,10(2, 4H)-tetraone]	≥ 32	2 (≈ 4.11 µM)	≥ 32	4 (≈ 8.22 µM)	32 (≈ 65.8 µM)						138.3 to 139.3
CCc1nc2c(c3c1C(=O)C(Sc1ccc(F)cc1)=CC3=O)c(=O)n(C)c(=O)n2C [Molecule 15, 6-ethyl-8-(4-fluorothiophenyl)-2,4-dimethylpyrimido[4,5-c]isoquinoline-1,3,7,10(2H, 4H)-tetraone]	≥ 32	8 (≈ 18.8 µM)	≥ 32	8 (≈ 18.8 µM)	8 (≈ 18.8 µM)						194.9 to 195.4
CCc1nc2c(c3c1C(=O)C(Sc1ccc(OC)cc1)=CC3=O)c(=O)n(C)c(=O)n2C [Molecule 14, 6-ethyl-8-(4-methoxythiophenyl)-2,4-dimethylpyrimido[4,5-c]isoquinoline-1,3,7,10(2H,4H)-tetraone]	≥ 32	16 (≈ 36.6 µM)	≥ 32	16 (≈ 36.6 µM)	16 (≈ 36.6 µM)						198.9 to 201.5
CCc1nc2c(c3c1C(=O)C(Sc1ccc(Cl)cc1)=CC3=O)c(=O)n(C)c(=O)n2C [Molecule 16, 8-(4-chlorothiophenyl)-6-ethyl-2,4-dimethylpyrimido[4,5-c]isoquinoline-1,3,7,10(2H, 4H)-tetraone]						≥ 32	4 (≈ 9.05 µM)	≥ 32	4 (≈ 9.05 µM)	4 (≈ 9.05 µM)	196.5 to 198.3
CCc1nc2c(c3c1C(=O)C(Sc1cccc(Cl)c1)=CC3=O)c(=O)n(C)c(=O)n2C [Molecule 11, 8-(3-chlorothiophenyl)-6-ethyl-2,4-dimethylpyrimido[4,5-c]isoquinoline-1,3,7,10(2H,4H)-tetraone]	≥ 32	2 (≈ 4.53 µM)	≥ 32	4 (≈ 9.05 µM)	32 (≈ 72.4 µM)						156.1 to 157.1
CCc1nc2c(c3c1C(=O)C(Sc1cccc(C)c1)=CC3=O)c(=O)n(C)c(=O)n2C [Molecule 8, 6-ethyl-2,4-dimethyl-8-(m-tolylthio)pyrimido[4,5c]isoquinoline-1,3,7,10(2H,4H)-tetraone]	≥ 32	4 (≈ 9.49 µM)	≥ 32	4 (≈ 9.49 µM)	4 (≈ 9.49 µM)						162 to 163
CCc1nc2c(c3c1C(=O)C=CC3=O)c(=O)n(C)c(=O)n2C [Molecule 1, 6-ethyl-2,4-dimethylpyrimido[4,5-c]isoquinoline-1,3,7,10(2H,4H)-tetraone]	> 32	≥ 32	> 32	> 32	≥ 32						167.6 to 167.9
CCc1nc2c(c3c1C(=O)C(Sc1cccc(OC)c1)=CC3=O)c(=O)n(C)c(=O)n2C [Molecule 9, 6-ethyl-8-(3-methoxythiophenyl)-2,4-dimethylpyrimido[4,5-c]isoquinoline-1,3,7,10(2H,4H)-tetraone]	≥ 32	4 (≈ 9.14 µM)	≥ 32	4 (≈ 9.14 µM)	8 (≈ 18.3 µM)						179.5 to 180.5

Source: US11390622B2, “Pyrimido-isoquinolin-quinone derivative compounds, and pharmaceutically acceptable salts, isomers and tautomers thereof; pharmaceutical composition; preparation method; and use thereof in the treatment of diseases caused by bacteria and multidrug-resistant bacteria” (Universidad de Chile, priority 2015, dated 2022)
